Reference: US12479821B2 (MBD CO., LTD., priority 2019, dated 2025)

Target: T1, CYP4A (Homo sapiens, UniProt Q02928)
T1 construct: host or cells: bactosome, i.e. bacterial membrane preparation (own knowledge of the term)
T1 sequence (Q02928 5-519): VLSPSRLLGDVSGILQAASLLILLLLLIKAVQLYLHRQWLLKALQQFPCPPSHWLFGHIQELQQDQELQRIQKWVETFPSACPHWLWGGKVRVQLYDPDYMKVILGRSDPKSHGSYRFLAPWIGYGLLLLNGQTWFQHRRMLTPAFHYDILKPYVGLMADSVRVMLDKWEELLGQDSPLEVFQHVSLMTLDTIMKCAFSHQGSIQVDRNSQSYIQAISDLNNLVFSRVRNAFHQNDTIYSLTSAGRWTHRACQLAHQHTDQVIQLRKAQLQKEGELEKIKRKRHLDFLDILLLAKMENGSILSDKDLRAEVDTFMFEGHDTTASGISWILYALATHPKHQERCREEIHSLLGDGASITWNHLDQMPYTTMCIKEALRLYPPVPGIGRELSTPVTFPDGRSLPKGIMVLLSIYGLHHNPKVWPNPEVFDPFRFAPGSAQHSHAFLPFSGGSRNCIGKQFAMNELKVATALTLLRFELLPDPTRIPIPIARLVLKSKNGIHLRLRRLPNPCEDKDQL
Assay: CYP4A enzyme assay (Luciferin-ME luminescence, CYP4A bactosome)
Format: biochemical
Details: compound concentration 5 μM; 25%-50%; read-out: % Inhibition 25%-50%
Procedure: A commercially available reagent was used for the reagent used in the experiment, and it was manufactured and used if necessary. The device used for activity measurement was EnVision of PerkinElmer or SpectraMax of MOLECULAR DEVICES.
First, CYP4A bactosome and synthetic compound (5 μM) were mixed in assay buffer (100 mM KPO4, 0.1% BSA, 1 mM DTT) in a 384-well plate (white opaque ploystyrene nontreated flat-bottom well), and then reacted at room temperature for 15 minutes. After adding 5 mM Luciferin-ME and NADPH Regeneration system (10× sol.A, 20× sol.B in assay buffer, Cat. Number: V865B, Promega), leave it at room temperature for 30 minutes to allow the CYP4A reaction to occur sufficiently, by adding the Luciferin Detection reagent, the CYP4A reaction was finished, luminescence reaction was induced, and the reaction was carried out at room temperature for 15 minutes. The degree of inhibition of CYP4A activity was measured by comparing the luminescence values from each well with a microplate reader.

Row | inhibition at 5 µM [%] | SMILES
1 | 25 to 50 | Cc1cc(N2CCN(C(=O)C3CCCN(S(=O)(=O)c4ccccc4)C3)CC2)c2ccccc2n1 (stereo not shown) [Formula 19, (4-(2-methylquinolin-4-yl)piperazin-1-yl) (1-(phenylsulfonyl)piperidin-3-yl) methanone]
2 | 25 to 50 | Cc1ccc(S(=O)(=O)N2CCCC(C(=O)N3CCN(c4cc(C)nc5ccccc45)CC3)C2)cc1 (stereo not shown) [Formula 20, (4-(2-methylquinolin-4-yl)piperazin-1-yl) (1-tosylpiperidin-3-yl) methanone]
3 | 25 to 50 | Cc1cccc(S(=O)(=O)N2CCCC(C(=O)N3CCN(c4cc(C)nc5ccccc45)CC3)C2)c1 (stereo not shown) [Formula 21, (4-(2-methylquinolin-4-yl)piperazin-1-yl) (1-(m-tolylsulfonyl)piperidin-3-yl) methanone]
4 | 25 to 50 | Cc1cc(N2CCN(C(=O)C3CCCN(S(=O)(=O)c4ccc(C)c(C)c4)C3)CC2)c2ccccc2n1 (stereo not shown) [Formula 22, (1-((3,4-dimethylphenyl)sulfonyl)piperidin-3-yl) (4-(2-methylquinolin-4-yl)piperazin-1-yl) methanone]
5 | 25 to 50 | CCc1ccc(S(=O)(=O)N2CCCC(C(=O)N3CCN(c4cc(C)nc5ccccc45)CC3)C2)cc1 (stereo not shown) [Formula 23, (1-(4-ethylphenylsulfonyl)piperidin-3-yl) (4-(2-methylquinolin-4-yl)piperazin-1-yl) methanone]

Same assay, conditions: compound concentration 5 μM; 75% or more; read-out: % Inhibition 75% or more

Row | SMILES | inhibition at 5 µM [%]
6 | CN(C)c1ccc(S(=O)(=O)N2CCCC(C(=O)N3CCN(c4ccnc5cc(F)ccc45)CC3)C2)cc1 (stereo not shown) | ≥ 75
7 | CN(C)c1ccc(S(=O)(=O)N2CCC[C@H](C(=O)N3CCN(c4ccnc5cc(F)ccc45)CC3)C2)cc1 | ≥ 75
8 | CN(C)c1ccc(S(=O)(=O)N2CCCC(C(=O)N3CCN(c4ccnc5cc(Cl)ccc45)CC3)C2)cc1 (stereo not shown) [Formula 4, (4-(7-chloroquinolin-4-yl)piperazin-1-yl) (1-((4-(dimethylamino)phenyl)sulfonyl)piperidin-3-yl) methanone] | ≥ 75
9 | O=C(C1CCCN(S(=O)(=O)c2ccc(O)cc2)C1)N1CCN(c2ccnc3cc(Cl)ccc23)CC1 (stereo not shown) [Formula 5, (4-(7-chloroquinolin-4-yl)piperazin-1-yl) (1-((4-hydroxyphenyl)sulfonyl)piperidin-3-yl) methanone] | ≥ 75
10 | O=C(C1CCCN(S(=O)(=O)c2cccc([N+](=O)[O-])c2)C1)N1CCN(c2ccnc3cc(Cl)ccc23)CC1 (stereo not shown) [Formula 6, (4-(7-chloroquinolin-4-yl)piperazin-1-yl) (1-((3-nitrophenyl)sulfonyl)piperidin-3-yl) methanone] | ≥ 75
11 | O=C(C1CCCN(S(=O)(=O)c2ccc(C(F)(F)F)cc2)C1)N1CCN(c2ccnc3cc(Cl)ccc23)CC1 (stereo not shown) [Formula 7, (4-(7-chloroquinolin-4-yl)piperazin-1-yl) (1-((4-(trifluoromethyl)phenyl)sulfonyl)piperidin-3-yl) methanone] | ≥ 75
12 | N#Cc1ccc(S(=O)(=O)N2CCCC(C(=O)N3CCN(c4ccnc5cc(Cl)ccc45)CC3)C2)cc1 (stereo not shown) [Formula 10, 4-(3-(1-(7-chloroquinolin-4-yl)piperazine-4-carbonyl)piperidin-1-ylsulfonyl)benzonitrile] | ≥ 75
13 | CS(=O)(=O)c1ccc(S(=O)(=O)N2CCCC(C(=O)N3CCN(c4ccnc5cc(Cl)ccc45)CC3)C2)cc1 (stereo not shown) [Formula 11, (4-(7-chloroquinolin-4-yl)piperazin-1-yl) (1-(4-(methylsulfonyl)phenylsulfonyl)piperidin-3-yl) methanone] | ≥ 75
14 | COc1cccc(S(=O)(=O)N2CCCC(C(=O)N3CCN(c4ccnc5cc(Cl)ccc45)CC3)C2)c1 (stereo not shown) [Formula 14] | ≥ 75

More lines, now with the values ahead:

Row | inhibition at 5 µM [%] | SMILES
15 | ≥ 75 | CC(=O)Nc1ccc(S(=O)(=O)N2CCCC(C(=O)N3CCN(c4cc(C)nc5ccccc45)CC3)C2)cc1 (stereo not shown) [Formula 15, N-(4-(3-(1-(2-methylquinolin-4-yl)piperazine-4-carbonyl)piperidin-1-ylsulfonyl)phenyl) acetamide]
16 | ≥ 75 | CC(=O)Nc1ccc(S(=O)(=O)N2CCC[C@@H](C(=O)N3CCN(c4cc(C)nc5ccccc45)CC3)C2)cc1 [Formula 16, (R)—N-(4-((3-(4-(2-methylquinolin-4-yl)piperazine-1-carbonyl)piperidin-1-yl)sulfonyl)phenyl) acetamide]
17 | ≥ 75 | Cc1cc(N2CCN(C(=O)C3CCCN(S(=O)(=O)c4ccc([N+](=O)[O-])cc4)C3)CC2)c2ccccc2n1 (stereo not shown) [Formula 18, (4-(2-methylquinolin-4-yl)piperazin-1-yl) (1-(4-nitrophenylsulfonyl)piperidin-3-yl) methanone]
18 | ≥ 75 | Cc1cc(N2CCN(C(=O)C3CCCN(S(=O)(=O)c4cccc([N+](=O)[O-])c4)C3)CC2)c2ccccc2n1 (stereo not shown) [Formula 28, (4-(2-methylquinolin-4-yl)piperazin-1-yl) (1-(3-nitrophenylsulfonyl)piperidin-3-yl) methanone]

Same assay, conditions: compound concentration 5 μM; '50%-75%'; read-out: % Inhibition 50%-75%

Row | SMILES | inhibition at 5 µM [%]
19 | O=C(C1CCCN(S(=O)(=O)c2ccccc2)C1)N1CCN(c2ccnc3cc(Cl)ccc23)CC1 (stereo not shown) [Formula 1, (4-(7-chloroquinolin-4-yl)piperazin-1-yl) (1-(phenylsulfonyl)piperidin-3-yl) methanone] | 50 to 75
20 | Cc1ccc(S(=O)(=O)N2CCCC(C(=O)N3CCN(c4ccnc5cc(Cl)ccc45)CC3)C2)cc1 (stereo not shown) [Formula 2, (4-(7-chloroquinolin-4-yl)piperazin-1-yl) (1-tosylpiperidin-3-yl) methanone] | 50 to 75
21 | O=C(C1CCCN(S(=O)(=O)c2ccc(F)cc2)C1)N1CCN(c2ccnc3cc(Cl)ccc23)CC1 (stereo not shown) [Formula 3, (4-(7-chloroquinolin-4-yl)piperazin-1-yl) (1-((4-fluorophenyl)sulfonyl)piperidin-3-yl) methanone] | 50 to 75
22 | O=C(C1CCCN(S(=O)(=O)c2cccc(F)c2)C1)N1CCN(c2ccnc3cc(Cl)ccc23)CC1 (stereo not shown) [Formula 8, (4-(7-chloroquinolin-4-yl)piperazin-1-yl) (1-((3-fluorophenyl)sulfonyl)piperidin-3-yl) methanone] | 50 to 75
23 | O=C(C1CCCN(S(=O)(=O)c2ccc(Oc3ccccc3)cc2)C1)N1CCN(c2ccnc3cc(Cl)ccc23)CC1 (stereo not shown) [Formula 9, (4-(7-chloroquinolin-4-yl)piperazin-1-yl) (1-((4-phenoxyphenyl)sulfonyl)piperidin-3-yl) methanone] | 50 to 75
24 | COC(=O)c1ccc(S(=O)(=O)N2CCCC(C(=O)N3CCN(c4ccnc5cc(Cl)ccc45)CC3)C2)cc1 (stereo not shown) [Formula 12, methyl 4-((3-(1-(7-chloroquinolin-4-yl)piperazine-1-carbonyl)piperidin-1-yl)sulfonyl)benzoate] | 50 to 75
25 | O=C(C1CCCN(S(=O)(=O)c2ccc(-c3ccccc3)cc2)C1)N1CCN(c2ccnc3cc(Cl)ccc23)CC1 (stereo not shown) [Formula 13, (4-(7-chloroquinolin-4-yl)piperazin-1-yl) (1-(4-phenylbenzenesulfonyl)piperidin-3-yl) methanone] | 50 to 75

The next lines start with the values.

Row | inhibition at 5 µM [%] | SMILES
26 | 50 to 75 | CC(=O)Nc1ccc(S(=O)(=O)N2CCC[C@H](C(=O)N3CCN(c4cc(C)nc5ccccc45)CC3)C2)cc1 [Formula 17, (S)—N-(4-((3-(4-(2-methylquinolin-4-yl)piperazine-1-carbonyl)piperidin-1-yl)sulfonyl)phenyl) acetamide]
27 | 50 to 75 | Cc1cc(N2CCN(C(=O)C3CCCN(S(=O)(=O)c4ccc(F)cc4)C3)CC2)c2ccccc2n1 (stereo not shown) [Formula 24, (1-((4-fluorophenyl)sulfonyl)piperidin-3-yl) (4-(2-methylquinolin-4-yl)piperazin-1-yl) methanone]
28 | 50 to 75 | Cc1cc(N2CCN(C(=O)C3CCCN(S(=O)(=O)c4ccc(Cl)cc4)C3)CC2)c2ccccc2n1 (stereo not shown) [Formula 25, (1-(4-chlorophenylsulfonyl)piperidin-3-yl) (4-(2-methylquinolin-4-yl)piperazin-1-yl) methanone]
29 | 50 to 75 | Cc1cc(N2CCN(C(=O)C3CCCN(S(=O)(=O)c4ccc(C(F)(F)F)cc4)C3)CC2)c2ccccc2n1 (stereo not shown) [Formula 26, (4-(2-methylquinolin-4-yl)piperazin-1-yl) (1-(4-(trifluoromethyl)phenylsulfonyl)piperidin-3-yl) methanone]
30 | 50 to 75 | Cc1cc(N2CCN(C(=O)C3CCCN(S(=O)(=O)c4cccc(F)c4)C3)CC2)c2ccccc2n1 (stereo not shown) [Formula 27, (1-(3-fluorophenylsulfonyl)piperidin-3-yl) (4-(2-methylquinolin-4-yl)piperazin-1-yl) methanone]
31 | 50 to 75 | COc1ccc(S(=O)(=O)N2CCCC(C(=O)N3CCN(c4cc(C)nc5ccccc45)CC3)C2)cc1 (stereo not shown) [Formula 29, (1-(4-methoxyphenylsulfonyl)piperidin-3-yl) (4-(2-methylquinolin-4-yl)piperazin-1-yl)methanone]
